The source of these data is patent US12428415B2, “Matriptase 2 inhibitors and uses thereof” (Disc Medicine, Inc., priority 2018, dated 2025).

In the first experiment the target is T1, Human Recombinant Matriptase 2 (Homo sapiens, UniProt Q8IU80).
T1 construct: purchased Enzo Life Sciences (an in-house preparation was also used) ALX-201-752-1
T1 sequence (Q8IU80 1-811): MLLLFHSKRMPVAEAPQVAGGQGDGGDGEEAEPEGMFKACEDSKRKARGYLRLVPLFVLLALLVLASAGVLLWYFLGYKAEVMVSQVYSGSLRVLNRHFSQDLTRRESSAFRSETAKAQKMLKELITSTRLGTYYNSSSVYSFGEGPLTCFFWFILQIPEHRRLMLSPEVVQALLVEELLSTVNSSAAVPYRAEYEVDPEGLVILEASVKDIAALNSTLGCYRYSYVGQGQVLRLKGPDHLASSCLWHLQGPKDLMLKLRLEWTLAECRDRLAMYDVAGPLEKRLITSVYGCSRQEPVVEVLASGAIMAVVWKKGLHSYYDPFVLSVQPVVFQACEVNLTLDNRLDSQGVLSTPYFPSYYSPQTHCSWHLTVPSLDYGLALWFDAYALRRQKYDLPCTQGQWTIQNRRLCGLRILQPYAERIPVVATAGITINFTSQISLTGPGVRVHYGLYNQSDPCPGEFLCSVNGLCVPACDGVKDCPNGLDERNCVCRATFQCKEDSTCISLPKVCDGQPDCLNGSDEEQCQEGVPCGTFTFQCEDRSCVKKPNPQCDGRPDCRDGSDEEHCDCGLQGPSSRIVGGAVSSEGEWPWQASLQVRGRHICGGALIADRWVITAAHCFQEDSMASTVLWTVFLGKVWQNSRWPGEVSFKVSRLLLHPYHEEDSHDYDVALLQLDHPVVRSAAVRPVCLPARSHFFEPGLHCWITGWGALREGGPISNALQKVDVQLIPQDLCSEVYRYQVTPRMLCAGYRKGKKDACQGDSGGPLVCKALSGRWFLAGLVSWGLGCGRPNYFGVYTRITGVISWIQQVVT
The experiment in a line: Matriptase 2 fluorescence based inhibition assay, Method A (100 mM TRIS pH 9, 1 mg/mL BSA). The following applies: at 1 uM; Assay Used = A; read-out: Mar-2 % inhibition at 1 uM. The format is biochemical. The method, then: Test compounds were evaluated for their potential to inhibit Human Recombinant Matriptase 2 (in-house and commercial protein from Enzo Life Sciences—cat log -ALX-201-752-1) using fluorescence based assay. The concentration of Recombinant Matriptase 2 and the substrate used in the assay was: 7 nM (commercial) and 15 nM (Inhouse Matriptase 2) and 100 μM (Boc-Gln-Ala-Arg-7-amido-4-methyl coumarin hydrobromide—Cat log: B4153-Sigma) respectively. The assay buffer used was 100 mM TRIS pH 9, 1 mg/mL BSA. The assay was performed using 384 well black flat bottom plate from grenier (Cat log: 781076) at 25° C. The enzyme and compound was preincubated for 30 mins, plate was read 60 mins after substrate addition at wavelength Ex: 360/Em: 480 nm. The final assay volume was 20 μl. Stock solution of compounds were initially prepared in DMSO and appropriate dilutions were made for screening and IC50 determination (final DMSO conc in the assay was 1%). All the measurements were carried out using the Spectramax M5, Molecular devices. The compounds were screened at 1 and 10 μM concentration and IC50 was determined for the interested compounds.
To determine IC50 values, dose response curves were generated by plotting percentage inhibition as a function of inhibitor concentration and the data was fitted to sigmoidal non-linear regression equation (variable slope) using Graph Pad prism software V7.
By inhibition is commonly meant the drop in the measured response relative to a control, in per cent. As for `CC(C)c1ccc(Cn2c(C(=O)N3CCC(CF)CC3)cc3ccc(C(=N)N)cc32)cc1` [Compound I-297], the inhibition at 1 µM fell in the range of 0 to 25%.

With `N=C(N)c1ccc2cc(C(=O)NCC3CCCCC3)n(Cc3ccc(C(N)=O)cc3Cl)c2c1` [Compound I-228, 6-Carbamimidoyl-1-(2-Chloro-4-carbamoyl-benzyl)-N-(cyclohexylmethyl)-1H-indole-2-carboxamide], the inhibition at 1 µM is 0 to 25%.

`CC(C)c1ccc(Cn2c(C(=O)N3CC[C@H](F)C3)cc3ccc(C(=N)N)cc32)cc1` [Compound I-293]: the inhibition at 1 µM lay in the range of 0 to 25%.

As to `N=C(N)c1ccc2cc(C(=O)N3CCC(C(=O)NCCN)CC3)n(CCc3ccccc3)c2c1` [Compound I-357], the inhibition at 1 µM was in the range of 0 to 25%.

The next experiment concerns the target T1, Human Recombinant Matriptase 2. Put plainly: Matriptase 2 fluorescence based inhibition assay, Method B (50 mM TRIS pH 7.5, 150 mM NaCl, 0.01% gelatin). The format is biochemical. The following applies: 1 uM compound; Assay Used = B. A digest of the protocol:
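Commercial (7 nM) or in-house (15 nM) enzyme preincubated 30 min with compound at 25° C, then 100 μM Boc-Gln-Ala-Arg-AMC added; fluorescence (Ex 360/Em 480 nm) read at 60 min. 1% DMSO final. IC50 from variable-slope sigmoidal fit of % inhibition.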
As to `CN(C)C(=O)c1cc2ccc(C(=N)N)cc2n1Cc1cccc2ccccc12` [Compound I-482], the “Mar-2 % inhibition at 1 uM” value was “B (B represents 25%≤I≤50%)”.

The experiment is the same for the next values; noted with them: 1 uM compound; Assay Used = B (Method B); read-out: Mar-2 % inhibition at 1 uM.
With `NC(=NO)c1ccc2cc(C(=O)O)n(Cc3cc(Oc4ccccc4)cc4ccccc34)c2c1` [Compound I-665], the inhibition at 1 µM lay in the range of 0 to 25%.

Turning to `N=C(N)c1ccc2cc(C(=O)N[C@H]3CC[C@H](N)CC3)n(Cc3cc(Oc4ccccc4)cc4ccccc34)c2n1` [Compound I-721], the inhibition at 1 µM lay in the range of 75 to 100%.

For `N=C(N)c1ccc2cc(C(=O)NCc3ccncc3)n(Cc3cccc4ccccc34)c2c1` [Compound I-758], the inhibition at 1 µM fell in the range of 50 to 75%.

`CCOC(=O)c1cc2ccc(C(=N)NC(=O)OCC(C)C)cc2n1Cc1cc(Oc2ccccc2)cc2ccccc12` [Compound I-627]: the inhibition at 1 µM was 0 to 25%.

As to `COC(=O)c1cc2ccc(C(=N)N)cc2n1Cc1csc2ccccc12` [Compound I-708], the inhibition at 1 µM was in the range of 25 to 50%.

Regarding `CO/N=C(\N)c1ccc2cc(C(=O)OC)n(Cc3cccc4ccccc34)c2c1` [Compound I-718, methyl (E)-6-(N′-methoxycarbamimidoyl)-1-(naphthalen-1-ylmethyl)-1H-indole-2-carboxylate], the inhibition at 1 µM lay in the range of 0 to 25%.

For `CC(C)Oc1ccc2c(Cn3c(C(=O)O)cc4ccc(C(=N)N)cc43)cccc2c1` [Compound I-793], the inhibition at 1 µM was 50 to 75%.

`N=C(N)c1ccc2cc(C(=O)N[C@H]3CC[C@H](N)CC3)n(Cc3cc(OS(=O)(=O)c4ccccc4)cc4ccccc34)c2c1` [Compound I-608]: the inhibition at 1 µM was 75 to 100%.

Take `CCOC(=O)c1cc2ccc(C(=N)N)cc2n1Cc1cccc2ccccc12` [Compound I-601]: the inhibition at 1 µM is 50 to 75%.

As for `N=C(N)c1ccc2cc(C(=O)N[C@H]3CC[C@H](N)CC3)n(Cc3ccc(C(=O)N4CCCC4)c4ccccc34)c2c1` [Compound I-790], the inhibition at 1 µM is 25 to 50%.

Consider `N=C(N)c1ccc2cc(C(=O)O)n(Cc3cc(Oc4ccsc4)cc4ccccc34)c2c1` [Compound I-655], for which the inhibition at 1 µM lay in the range of 50 to 75%.

Turning to `N=C(N)Nc1ccc2cc(C(=O)N[C@H]3CC[C@H](N)CC3)n(Cc3cccc4ccccc34)c2c1` [Compound I-620, N-((1r,4r)-4-aminocyclohexyl)-6-guanidino-1-(naphthalen-1-ylmethyl)-1H-indole-2-carboxamide], the inhibition at 1 µM lay in the range of 0 to 25%.

For the molecule `Cc1c(C(=O)O)n(Cc2cccc3ccccc23)c2cc(C(=N)N)ccc12` [Compound I-638, 6-carbamimidoyl-3-methyl-1-(naphthalen-1-ylmethyl)-1H-indole-2-carboxylic Acid], the inhibition at 1 µM lay in the range of 50 to 75%.

As to `CCOC(=O)c1cc2ccc(C(N)=NO)cc2n1Cc1cc(S(=O)(=O)c2ccccc2)cc2ccccc12` [Compound I-658], the inhibition at 1 µM was in the range of 0 to 25%.

The experiment is the same for the next values; noted with them: 1 uM compound; Assay Used = B; read-out: Mar-2 % inhibition at 1 uM.
`CN1CCC(NC(=O)c2cc3ccc(C(=N)N)cc3n2Cc2cccc3ccccc23)CC1` [Compound I-432]: the inhibition at 1 µM was in the range of 75 to 100%.

Regarding `NCc1ccc2cc(C(=O)N[C@H]3CC[C@H](O)CC3)n(Cc3cccc4ccccc34)c2c1` [Compound I-532], the inhibition at 1 µM is 25 to 50%.

Regarding `N=C(N)c1ccc2c(CO)c(C(=O)N[C@H]3CC[C@H](N)CC3)n(Cc3cccc4ccccc34)c2c1` [Compound I-516, N-((1r,4r)-4-aminocyclohexyl)-6-carbamimidoyl-3-(hydroxymethyl)-1-(naphthalen-1-ylmethyl)-1H-indole-2-carboxamide], the inhibition at 1 µM fell in the range of 0 to 25%.

Take `COCc1c(C(=O)N[C@H]2CC[C@H](N)CC2)n(Cc2cccc3ccccc23)c2cc(C(=N)N)ccc12` [Compound I-517, N-((1r,4r)-4-aminocyclohexyl)-6-carbamimidoyl-3-(methoxymethyl)-1-(naphthalen-1-ylmethyl)-1H-indole-2-carboxamide]: the inhibition at 1 µM lay within 50 to 75%.

Regarding `N=C(N)c1ccc2cc(C(=O)NCCS(N)(=O)=O)n(Cc3cc(Oc4ncccn4)cc4ccccc34)c2c1` [Compound I-547], the inhibition at 1 µM was in the range of 75 to 100%.

Regarding `N=C(N)c1ccc2cc(C(=O)NC3CCNCC3)n(Cc3cccc4ccccc34)c2c1` [Compound I-418, 6-carbamimidoyl-1-(naphthalen-1-ylmethyl)-N-(piperidin-4-yl)-1H-indole-2-carboxamide], the inhibition at 1 µM lay in the range of 75 to 100%.

On to `CC(C)(C)OC(=O)N[C@H]1CC[C@H](c2nnc(-c3cc4ccc(C(=N)N)cc4n3Cc3cccc4ccccc34)o2)CC1` [Compound I-524, tert-butyl ((1r,4r)-4-(5-(6-carbamimidoyl-1-(naphthalen-1-ylmethyl)-1H-indol-2-yl)-1,3,4-oxadiazol-2-yl)cyclohexyl)carbamate], for which the inhibition at 1 µM is 25 to 50%.

For the molecule `CC(N)c1ccc2cc(C(=O)N[C@H]3CC[C@H](N)CC3)n(Cc3cccc4ccccc34)c2c1` (stereo partly shown) [Compound I-580, N-((1r,4r)-4-aminocyclohexyl)-6-(1-aminoethyl)-1-(naphthalen-1-ylmethyl)-1H-indole-2-carboxamide], the inhibition at 1 µM lay within 0 to 25%.

For the molecule `CCOC(=O)c1cc2ccc(C(=N)N)cc2n1Cc1cc(Oc2ccsc2)cc2ccccc12` [Compound I-592], the inhibition at 1 µM was 0 to 25%.

On to `N=C(N)c1ccc2cc(C(=O)O)n(Cc3cc(NS(=O)(=O)c4ccccc4)cc4ccccc34)c2c1` [Compound I-567, 6-carbamimidoyl-1-((3-(phenylsulfonamido)naphthalen-1-yl)methyl)-1H-indole-2-carboxylic Acid], for which the inhibition at 1 µM was in the range of 75 to 100%.

Take `N=C(N)c1ccc2c(N)c(C(=O)N[C@H]3CC[C@H](N)CC3)n(Cc3cccc4ccccc34)c2c1` [Compound I-511, 3-amino-N-((1r,4r)-4-aminocyclohexyl)-6-carbamimidoyl-1-(naphthalen-1-ylmethyl)-1H-indole-2-carboxamide]: the inhibition at 1 µM is 75 to 100%.

As for `CCOC(=O)N1CCC(NC(=O)c2cc3ccc(C(=N)NC(=O)OC(C)(C)C)cc3n2Cc2cccc3ccccc23)CC1` [Compound I-420], the inhibition at 1 µM lay in the range of 0 to 25%.

Take `CC(C)(C)OC(=O)N[C@H]1CC[C@H](NC(=O)c2cc3ccc(C(=N)N)cc3n2-c2ccc3ccccc3c2)CC1` [Compound I-416]: the inhibition at 1 µM is 0 to 25%.

Still in this experiment, the particulars now being: compound at 1 uM; Assay Used: B; read-out: Mar-2 % inhibition at 1 uM.
Turning to `CNCCCOc1ccc2c(Cn3c(C(=O)O)cc4ccc(C(=N)N)cc43)cccc2c1` [Compound I-801, 6-carbamimidoyl-1-((6-(3-(methylamino)propoxy)naphthalen-1-yl)methyl)-1H-indole-2-carboxylic Acid], the inhibition at 1 µM was in the range of 50 to 75%.

The same experiment, now with this note: read-out: Mar-2 % inhibition at 1 uM.
Turning to `CN1CCC(NC(=O)c2cc3ccc(C(=N)NC(=O)Oc4ccccc4)cc3n2Cc2cccc3ccccc23)CC1` [Compound I-782], the inhibition at 1 µM lay within 50 to 75%.
